Data set [1] relates to ICR Swiss mice. Kind of data set: Stimulation of periosteal bone formation in a mouse calvarial injection model. The format is in vivo. As to conditions: present-tense example, no data or figure. How it is done: Stimulation of Periosteal Bone Formation in a Mouse Calvarial Injection Model. The anabolic (bone formation) of compounds of the presently-disclosed subject matter are evaluated in the mouse calvarial injection model. Briefly, 4-week-old ICR Swiss mice are injected subcutaneously over the surface of the calvariae with compounds of the presently-disclosed subject matter at concentrations of 0, 1, 3, and 10 mg/kg/day for 5 days (twice a day). Microtubule inhibitor TN-16 (5 mg/kg/day for 2 days, twice a day) are used as a positive control. Mice are sacrificed two weeks after the injections are completed. Dissected calvarial samples are fixed in 10% phosphate-buffered formalin for 2 days, decalcified in 10% EDTA for 2 weeks and then embedded in paraffin. Histological sections are cut and stained with H&E and orange G. New woven bone formation (new bone area) is quantified by histomorphometry using the OsteoMeasure system (OsteoMetrics Inc., Atlanta, Ga.).

The test system of data set [2] is OVX rats. The experiment in a line: Bone mechanical competence indentation test. The format is in vivo, Sprague-Dawley female rats. The settings on record: present-tense example, no data or figure. How it is done: (§1) Animals. Six month old, bilaterally ovariectomized (OVX) or sham operated Sprague-Dawley female rats (Harlan Laboratories, Indianapolis, Ind.) were maintained at the University of Louisville Research Resources Center at 22° C. with a 12-h light/dark cycle and ad libitum access to tap water and rodent chow (Purina Laboratory Rodent Diet 5001). All animal procedures were approved by the Institutional Animal Care and Use Committee, which is certified by the American Association for Accreditation of Laboratory Animal Care.
(§2) In vivo experiments were conducted in order to investigate the efficacy of compounds of the presently-disclosed subject matter. In all of the experiments, OVX and sham operated rats were randomly divided into groups of 5-7 animals. In all of the studies experimental groups included: i) Sham-operated control (euthanized six weeks post surgery as a pretreatment control), ii) OVX control (euthanized six weeks post surgery as a pretreatment control), iii) Sham control receiving vehicle, iv) OVX control receiving vehicle, v) OVX receiving 17-ethinyl estradiol (equimolar concentration with a selected test compound), vi) OVX receiving alendronate (1.6 mg/kg), and vii) OVX receiving parathyroid hormone 1-34 (PTH) ([…]). 17-ethinyl estradiol (17 EE) is a free estrogenic agent known to be orally active, and can serve as an example of an anti-catabolic agent. Alendronate (Alen) is a bisphosphonate that is currently used to treat osteoporosis (e.g., Fosamax®, Merck & Co., Inc,), and can serve as an example of an anti-catabolic agent. Parathyroid hormone 1-34 (PTH) is an agent that can serve as an example of an anabolic agent. All compounds and vehicle (1% DMSO in corn oil) were administered three times per week orally by gavage except for PTH which was administered via a subcutaneous injection in a volume of 0.5 ml/kg body mass thrice per week. Compound administration was initiated 6 weeks following surgery and lasted for 6 weeks (18 doses total).
(§3) Compounds of the presently-disclosed subject matter were orally administered to OVX rats at various doses. As indicated above all BTE's were administered three times per week for 6 weeks.
(§4) Following 6 weeks of treatment, blood was obtained from each animal via cardiac puncture following an overnight fast and animals were subsequently euthanized via carbon dioxide asphyxiation. Blood was centrifuged immediately and the obtained serum samples were aliquoted and stored at −70° C. prior to analysis. Uteri were removed and fresh weights were obtained. Uterine masses were normalized to body mass at the end of the experiment. The left and right femora and left and right tibiae were subsequently collected from each animal, cleaned of soft tissue, and stored in saline at 4° C. prior to analysis.
Bone Mechanical Competence Indentation Test. After sacrifice, the left tibiae were trimmed to expose the cancellous bone of the proximal tibial metaphysis and an indentation test was performed by advancing a flat-tipped cylindrical post (1.5 mm diameter) axially into the cut surface to measure the compressive strength of the cancellous bone structure.

The nature of data set [3]: Hydroxyapatite (HA) Binding Assay. The settings on record: 10^−5 M analyte, 50 mM Tris-HCl pH 7.4, 1% DMSO; adjusted such that tetracycline = 100. How it is done: A Hydroxyapatite (HA) Binding Assay is used to determine whether compounds have an affinity for bone. Compounds of the presently-disclosed subject matter having a Bone Targeting Portion (RT) are studied using the HA Binding Assay. A 10^−3 M solution of each analyte was made in 100% dimethylsulfoxide (DMSO). A 100 fold dilution was then made to form a 10^−5 M solution in 50 mM Tris-HCl buffer, pH 7.4, 1% DMSO. Tetracycline was used as a reference analyte and approximately 50% was adsorbed to HA at the concentration of 10^−5 M. The HA slurry was 0.5 g/100 mL 50 mM Tris-HCl buffer, 1% DMSO.
For each analyte, two samples were prepared. For one sample, 1 mL of 10^−5 M analyte and 100 μL 50 mM Tris-HCl buffer, 1% DMSO was pipetted into a microcentrifuge tube. For the second sample, 1 mL of 10^−5 M analyte and 100 μL of the HA slurry was pipetted into a microcentrifuge tube. The samples were mixed gently by inversion for 4 minutes and then centrifuged at 12,000 g for 3 minutes to sediment the HA contained in those samples. The supernatant was transferred to another microcentrifuge tube.
An electronic spectral scan (ultraviolet-visible) from 220-520 nm was obtained for each analyte using a Varian Cary 300 Bio Scan. The blank was 50 mM Tris-HCl buffer, 1% DMSO. The wavelength of maximum absorbance (λmax) was determined, and the extinction coefficient (ε) was calculated using the Beer-Lambert Law.
The absorbance of the samples incubated with HA was measured at λmax, and the molar concentration of the analyte was then determined using the Beer-Lambert Law and the previously calculated extinction coefficient. The fraction adsorbed to HA for each sample was subsequently calculated.

In data set [4] the test system is OVX rats. Kind of data set: RatLaps ELISA for C-telopeptide fragments of collagen type I (CTX-I) in serum. The format is in vivo, Sprague-Dawley female rats. As to conditions: Formula 125 at 1000 μg/kg, 17-ethinyl estradiol equimolar, alendronate 1.6 mg/kg. A general note: An ELISA detects its analyte on a solid surface through an enzyme-linked reagent.
Text: RatLaps™ ELISA for C-Telopeptide Fragments of Collagen Type I (CTX-I). […] Bone resorption (CTX-I) was quantitatively assessed in rat serum using the commercially available RatLaps™ ELISA KIT from Nordic Bioscience Diagnostics A/S (Herlev, Denmark) as recommended by the manufacturer.
Data set [5] relates to OVX rats. The experiment in a line: Regional femoral density via Archimedes' Principle. The format is in vivo, Sprague-Dawley female rats. The settings on record: oral 10, 100, or 1000 μg/kg, three times per week for 6 weeks. The procedure:
as §1, §2, §3
Following 6 weeks of treatment, blood was obtained from each animal via cardiac puncture following an overnight fast and animals were subsequently euthanized via carbon dioxide asphyxiation. […]
Regional Femoral Density via Archimedes' Principle. […] Briefly, each femur was measured with a Cen-Tech Digital Caliper and a cut was made from each end at 20% of the length of the femur plus half the width of the blade. Subsequently, the bone marrow was washed out of the femoral diaphysis and the Archimedes density for each of the three femoral regions was determined as described above.

Data set [6] concerns OVX rats. The experiment in a line: Volume fraction, ex vivo micro-computed tomography of tibia. The format is in vivo, Sprague-Dawley female rats. The settings on record: OVX rats, oral 10, 100, or 1000 μg/kg. How it is done:
as §1, §2, §3, §4
Volume Fraction—Ex vivo micro-computed tomography (μCT). Volume fraction is a representative value for the amount of bone that occupies a given volume or space. High resolution image data were collected using a customized micro-CT system (ACTIS 150/225 system, BIR Inc., Lincolnshire, Ill.). The metaphysis of each right tibia was scanned over a three millimeter range and three-dimensional images were reconstructed. Data were subsequently processed to reveal the volume fraction (BV/TV) occupied by trabecular (cancellous) bone tissue, cortical bone tissue, and whole bone tissue. The resulting data provides information regarding the density of whole bone, cortical bone, and trabecular bone.

The subject of data set [7] is OVX rats. Kind of data set: Quantitative determination of lipid metabolism (total cholesterol, HDL, LDL) in rat serum. The format is in vivo, Sprague-Dawley female rats. As to conditions: rat, in vivo. The procedure: as §1, §2, §4
Quantitative Determination of Lipid Metabolism (Total Cholesterol HDL, and LDL) in Rat Serum. Total cholesterol, high-density lipoprotein (HDL), and low-density lipoprotein (LDL) were quantitatively determined in the serum of rats in order to evaluate the extraosseous effects of estrogen treatment on lipid metabolism. Commercially available kits from Wako Diagnostics (Richmond, Va.) were used for the evaluations as recommended by the manufacturer.

For data set [8], the system named is OVX rats. The experiment in a line: Uterine mass and uterine mass to body weight ratio in OVX rats. The format is in vivo, Sprague-Dawley female rats. As to conditions: OVX rats, oral 10, 100, or 1000 μg/kg; compared to animals treated with 17-ethinyl estradiol. How it is done: as §1, §2, §3, §4
Uterine Mass and Body Weight. […] Uterine mass can be used to as a measure of estrogenic effect occurring in a tissue outside the bone in response to treatment with a test compound or composition. Generally, a lower uterine mass can be associated with a decreased risk of adverse side effects associated with the test compound or composition. A ratio of uterine mass to body weight can be used to correct for any increase in uterine size attributable to the relative size of the individual animal. Body weight and/or uterine mass also serve as an indirect measures of toxicity of a test compound.

Data set [9] has as its system SUM1315 human breast cancer cells. Kind of data set: Anti-cancer effect: colony formation assay. The format is cell-based. As to conditions: 0.05, 0.1, 0.5, 1, 5, and 10 μM, 10 days. How it is done:
Anti-Cancer Effect: Colony formation assay. The anti-cancer effect of compounds including a bone active portion (RA) derived from an anti-cancer agent was tested. SUM1315 human breast cancer cells (derived from a clinical metastatic nodule) were seeded in 6 well plates at 5000 cells/well in 2 ml of medium. Cells were allowed to adhere overnight prior to drug treatment. Compounds of the presently-disclosed subject matter including a bone active portion (RA) derived from an anti-cancer agent, or the free anti-cancer agent, were added to the cells at concentrations of 0.05, 0.1, 0.5, 1, 5, and 10 μM and cells were allowed to grow at 37° C. for 10 days. In addition, untreated and vehicle (0.1% DMSO) treated wells were included as controls. After 10 days of treatment, medium was removed from each well and cells were subsequently washed with water. Cells were then fixed in 10% formaldehyde for 10 minutes, washed with water and then stained with 0.5% crystal violet for 5 minutes. Colonies of cells were subsequently counted under the microscope in three separate frames. Three independent experiments were performed and the results are an average of the three experiments. Images were obtained from a representative well for each concentration.

Data set [10] shares this test system. Kind of data set: Anti-cancer effect: cell proliferation (MTT) assay. The format is cell-based. The settings on record: 0.05, 0.1, 0.5, 1, 5, and 10 μM, days 1-6. The source says:
Anti-Cancer Effect: Cell Proliferation Assay. The colorometric MTT assay is based on the cleavage of a yellow MTT tetrazolium salt to form purple formazan crystals by the mitochondria of metabolically active and viable cells. The formazan crystals are insoluble in aqueous solution but can be dissolved in acid and quantified using a spectrophotometer. The number of living and viable cells in a sample directly correlates to the amount of purple formazan crystals formed. SUM1315 human breast cancer cells were seeded in triplicate in 96 well plates at 1000 cells/well and were allowed to adhere overnight prior to drug treatment. Compounds of the presently-disclosed subject matter including a bone active portion (RA) derived from an anti-cancer agent, or the free anti-cancer agent, were added to the cells at concentrations of 0.05, 0.1, 0.5, 1, 5, and 10 μM and cells were allowed to grow at 37° C. for 1, 2, 3, 4, 5, or 6 days. In addition, untreated and vehicle (0.1% DMSO) treated wells were included at each time point as controls. Following treatment the MTT assay was subsequently performed and the absorbance at 490 nm was recorded. Three independent experiments were performed and the results were averaged.

Entries after “also recorded” stand apart in the source; their conditions may differ.

Turning to `CC12CCC3c4ccc(O)cc4CCC3C1CC[C@H]2OCCC(=O)NCCOCCOCC(=O)Nc1ccc(OCc2ccccc2)c(C(N)=O)c1O` (stereo partly drawn) [Formula 125], the “new bone area (calvarial injection model)” value in [1] is reported as “increase new bone area”. Moreover, the “bone strength (indentation test)” value in [2] was “increase bone strength”. Further, the “Binding Index (binding to hydroxyapatite)” value in data set [3] came out at 160. In [4], the “production of CTX-I (bone resorption marker) in serum” value is listed as “do not inhibit production of CTX-I”. Also, the “regional bone density (left femur)” value in [5] was “increased regional bone densities, as compared to the OVX animals; also recorded: increased regional bone densities, as compared to the Sham animals”. The “bone density from three-dimensional micro-CT images” value in [6] was “increase in bone density”. Moreover, the trabecular volume fraction entry in data set [6] (ex vivo micro-CT) was “increased, as compared to OVX animals”. Also, the “lipid metabolism (total cholesterol, HDL, LDL in serum)” value in [7] is reported as “limited or no effect”. Besides, the “ratio of uterine mass to body weight” value in [8] is listed as “lower”.
In the case of `COc1cccc2c1C(=O)c1c(O)c3c(c(O)c1C2=O)C[C@@](O)(C(=O)CO)C[C@H]3OC1C[C@H](NC(=O)CCCC(=O)NCCOCCOCC(=O)Nc2ccc(OC)c(C(N)=O)c2O)[C@H](O)[C@H](C)O1` (stereo partly drawn) [Formula 138], the colony formation entry in [9] is “dose-responsive decrease in colony formation”. For the same compound, the “Binding Index (binding to hydroxyapatite)” value in data set [3] stood at 60. Besides, in data set [10], the “cell proliferation (MTT)” value is on record as “dose-responsive decrease in cell proliferation”.

These data come from patent publication US8071575B2, “Methods and compounds for the targeted delivery of agents to bone for interaction therewith” (priority 2007, dated 2011).
